Active and inactive are the calls of the source.
How the values were obtained:
[1] = molecular target: T1, Coagulation factor XII (Homo sapiens, UniProt P00748); assay type: functional;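 further: activated factor XIIa alpha cleaving a fluorogenic AMC peptide substrate; inhibitor potency from loss of enzyme activity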
T1 sequence (P00748 whole entry): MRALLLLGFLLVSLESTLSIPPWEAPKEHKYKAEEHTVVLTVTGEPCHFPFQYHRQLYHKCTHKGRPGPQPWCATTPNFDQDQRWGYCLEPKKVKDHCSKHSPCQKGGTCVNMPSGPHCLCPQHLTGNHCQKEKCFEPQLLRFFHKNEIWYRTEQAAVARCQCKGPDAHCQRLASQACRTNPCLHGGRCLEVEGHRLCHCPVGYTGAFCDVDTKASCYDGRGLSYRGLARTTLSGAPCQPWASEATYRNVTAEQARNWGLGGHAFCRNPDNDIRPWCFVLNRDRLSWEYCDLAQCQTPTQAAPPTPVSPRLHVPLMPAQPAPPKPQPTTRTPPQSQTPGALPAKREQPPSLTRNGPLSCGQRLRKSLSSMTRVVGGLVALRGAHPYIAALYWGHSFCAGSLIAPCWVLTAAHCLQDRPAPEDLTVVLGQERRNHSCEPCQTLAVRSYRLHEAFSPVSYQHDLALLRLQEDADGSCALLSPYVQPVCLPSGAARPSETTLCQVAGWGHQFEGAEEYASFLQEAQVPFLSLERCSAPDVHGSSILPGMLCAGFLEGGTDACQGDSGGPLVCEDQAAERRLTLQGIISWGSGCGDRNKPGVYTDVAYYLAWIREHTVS

[2] = molecular target: DNA dC->dU-editing enzyme APOBEC-3A (Homo sapiens, UniProt P31941); assay: Dose Response confirmation of small molecule APOBEC3A DNA Deaminase Inhibitors via a fluorescence-based single-stranded DNA deaminase assay. [Related pubchem assays (depositor defined):AID493011, AID493024]; assay type: functional
Sequence of DNA dC->dU-editing enzyme APOBEC-3A (P31941 whole entry): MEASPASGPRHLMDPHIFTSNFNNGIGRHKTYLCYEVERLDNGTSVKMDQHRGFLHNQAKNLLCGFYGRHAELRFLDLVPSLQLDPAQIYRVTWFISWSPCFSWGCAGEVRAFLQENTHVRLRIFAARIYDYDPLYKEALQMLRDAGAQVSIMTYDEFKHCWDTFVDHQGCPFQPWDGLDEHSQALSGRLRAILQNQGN

[3] = molecular target: DNA dC->dU-editing enzyme APOBEC-3G (Homo sapiens, UniProt Q9HC16); assay type: functional;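 further: Dose-response counterscreen measuring inhibition of APOBEC3G DNA deaminase activity, run while confirming APOBEC3A inhibitors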
Sequence of DNA dC->dU-editing enzyme APOBEC-3G (Q9HC16 whole entry): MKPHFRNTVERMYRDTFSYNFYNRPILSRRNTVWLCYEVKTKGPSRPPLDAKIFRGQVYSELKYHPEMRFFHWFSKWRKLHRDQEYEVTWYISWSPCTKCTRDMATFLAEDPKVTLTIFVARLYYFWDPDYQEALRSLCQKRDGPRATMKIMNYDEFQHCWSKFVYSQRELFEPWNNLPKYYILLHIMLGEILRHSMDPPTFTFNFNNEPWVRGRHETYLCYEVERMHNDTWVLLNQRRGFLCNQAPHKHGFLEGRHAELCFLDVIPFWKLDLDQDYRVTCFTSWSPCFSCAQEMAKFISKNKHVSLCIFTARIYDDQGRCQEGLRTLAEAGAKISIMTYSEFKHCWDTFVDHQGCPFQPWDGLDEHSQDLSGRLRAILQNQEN

[4] = molecular target: Ras and Rab interactor 1/Tyrosine-protein kinase ABL1 (Homo sapiens, UniProt P00519+Q13671); assay type: functional;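 further: biochemical TR-FRET dose-response test measuring inhibition of binding between Rin1 and Abl proteins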
Sequence of Ras and Rab interactor 1/Tyrosine-protein kinase ABL1 (P00519 whole entry): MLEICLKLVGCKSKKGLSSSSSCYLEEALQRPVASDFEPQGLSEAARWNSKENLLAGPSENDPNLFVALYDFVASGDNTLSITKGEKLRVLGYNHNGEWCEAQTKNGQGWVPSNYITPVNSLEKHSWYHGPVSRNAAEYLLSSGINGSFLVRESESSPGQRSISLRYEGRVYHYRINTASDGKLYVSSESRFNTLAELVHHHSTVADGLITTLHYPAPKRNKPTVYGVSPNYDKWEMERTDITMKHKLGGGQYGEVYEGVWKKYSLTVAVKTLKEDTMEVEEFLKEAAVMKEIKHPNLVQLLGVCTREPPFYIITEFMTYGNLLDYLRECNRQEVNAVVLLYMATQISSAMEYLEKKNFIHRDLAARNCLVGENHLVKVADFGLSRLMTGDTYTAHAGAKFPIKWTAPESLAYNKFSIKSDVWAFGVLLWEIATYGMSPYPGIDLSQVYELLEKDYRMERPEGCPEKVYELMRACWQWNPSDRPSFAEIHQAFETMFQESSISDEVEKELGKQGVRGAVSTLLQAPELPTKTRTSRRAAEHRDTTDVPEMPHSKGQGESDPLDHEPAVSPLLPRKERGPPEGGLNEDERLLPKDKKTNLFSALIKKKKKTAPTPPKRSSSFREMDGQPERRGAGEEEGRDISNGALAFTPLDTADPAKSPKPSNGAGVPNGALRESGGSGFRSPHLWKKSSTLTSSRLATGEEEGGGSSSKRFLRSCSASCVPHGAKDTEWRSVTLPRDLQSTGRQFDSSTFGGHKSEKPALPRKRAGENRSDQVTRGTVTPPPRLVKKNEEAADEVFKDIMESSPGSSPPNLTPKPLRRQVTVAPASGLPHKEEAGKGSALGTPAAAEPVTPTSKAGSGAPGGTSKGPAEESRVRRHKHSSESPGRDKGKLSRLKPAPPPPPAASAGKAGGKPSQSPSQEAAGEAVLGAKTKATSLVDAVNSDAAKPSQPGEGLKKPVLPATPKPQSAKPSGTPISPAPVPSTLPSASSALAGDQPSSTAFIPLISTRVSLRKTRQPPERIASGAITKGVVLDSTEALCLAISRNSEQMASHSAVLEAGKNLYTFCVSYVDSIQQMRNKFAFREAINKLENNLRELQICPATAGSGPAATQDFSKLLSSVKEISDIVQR
Sequence of Ras and Rab interactor 1/Tyrosine-protein kinase ABL1 (Q13671 whole entry): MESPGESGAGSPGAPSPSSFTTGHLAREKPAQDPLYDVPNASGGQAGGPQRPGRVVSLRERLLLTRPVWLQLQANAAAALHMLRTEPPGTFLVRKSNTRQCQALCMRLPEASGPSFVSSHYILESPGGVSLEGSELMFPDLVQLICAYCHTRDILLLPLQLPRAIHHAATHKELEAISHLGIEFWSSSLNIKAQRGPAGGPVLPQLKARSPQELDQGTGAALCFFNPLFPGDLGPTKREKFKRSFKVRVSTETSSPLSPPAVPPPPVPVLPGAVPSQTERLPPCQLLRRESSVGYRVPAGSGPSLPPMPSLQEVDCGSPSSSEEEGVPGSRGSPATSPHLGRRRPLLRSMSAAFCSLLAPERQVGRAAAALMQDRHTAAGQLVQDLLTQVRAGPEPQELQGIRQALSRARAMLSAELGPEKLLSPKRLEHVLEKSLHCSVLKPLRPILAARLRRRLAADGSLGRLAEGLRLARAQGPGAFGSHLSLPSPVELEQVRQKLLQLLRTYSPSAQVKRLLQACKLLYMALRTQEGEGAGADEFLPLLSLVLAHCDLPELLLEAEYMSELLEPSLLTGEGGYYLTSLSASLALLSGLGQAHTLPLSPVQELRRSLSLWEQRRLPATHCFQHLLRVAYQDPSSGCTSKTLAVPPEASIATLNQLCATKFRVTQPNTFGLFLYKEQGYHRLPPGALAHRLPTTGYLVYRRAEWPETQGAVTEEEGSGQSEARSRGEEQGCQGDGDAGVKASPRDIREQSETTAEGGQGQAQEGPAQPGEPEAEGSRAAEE

[5] = Shn3 3'UTR reporter inhibitors, dose response, cell-based, Clone20 osteoblasts, firefly luciferase, cherry-picked (AID 624132); assay type: functional;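 further: firefly luciferase luminescence from reporter carrying the Shn3 3'UTR in osteoblasts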
[6] = control 3'UTR Renilla luciferase suppression, dose response, counter-screen for Shn3 inhibitor project, cell-based, Clone20-Shn3RL, cherry-picked (AID 624133); assay type: functional
[7] = HepG2 cell cytotoxicity, dose response, cytotoxicity control for Shn3 inhibitor project, CellTiter-Glo, cherry-picked (AID 624134); assay type: functional, cell-based
[8] = Luminescence Cell-Based Dose Retest to Confirm Inhibitors of Cancer Stem Cells. [Related pubchem assays (depositor defined):AID2717, AID2721]; assay type: functional; conditions: Homo sapiens
[9] = molecular target: T2, Protein RecA (Mycobacterium tuberculosis, UniProt P9WHJ3); assay: Fluorescence Cell-Free Homogeneous Dose Retest to Identify Inhibitors of RecA-Intein Splicing Activity. [Related pubchem assays (depositor defined):AID2097, AID2223, AID489010, AID492950]; assay type: functional
T2 sequence (P9WHJ3 whole entry): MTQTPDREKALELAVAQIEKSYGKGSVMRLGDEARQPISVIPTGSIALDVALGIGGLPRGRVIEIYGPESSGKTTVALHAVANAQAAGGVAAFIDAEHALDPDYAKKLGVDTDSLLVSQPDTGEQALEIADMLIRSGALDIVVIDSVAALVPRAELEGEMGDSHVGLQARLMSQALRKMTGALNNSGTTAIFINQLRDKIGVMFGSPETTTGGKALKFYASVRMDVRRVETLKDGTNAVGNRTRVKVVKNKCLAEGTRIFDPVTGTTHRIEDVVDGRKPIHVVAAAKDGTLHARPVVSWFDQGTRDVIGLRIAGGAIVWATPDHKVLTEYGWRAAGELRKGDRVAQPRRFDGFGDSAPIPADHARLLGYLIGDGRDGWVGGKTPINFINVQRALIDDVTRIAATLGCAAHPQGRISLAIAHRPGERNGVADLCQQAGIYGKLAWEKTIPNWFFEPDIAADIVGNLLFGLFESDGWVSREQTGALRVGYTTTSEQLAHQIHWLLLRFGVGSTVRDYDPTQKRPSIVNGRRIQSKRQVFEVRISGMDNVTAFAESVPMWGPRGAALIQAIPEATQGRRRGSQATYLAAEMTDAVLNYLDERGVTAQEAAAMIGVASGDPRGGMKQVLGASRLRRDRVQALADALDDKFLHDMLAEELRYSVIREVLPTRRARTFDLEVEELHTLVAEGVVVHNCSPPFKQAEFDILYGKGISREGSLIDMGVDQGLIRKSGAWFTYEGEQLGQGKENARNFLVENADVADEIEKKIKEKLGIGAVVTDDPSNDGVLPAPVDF

[10] = molecular target: T3, Replicative DNA helicase DnaB (Mycobacterium tuberculosis, UniProt P9WMR3); assay: DnaB intein splicing inhibitors, dose response, biochemical, cell-free fluorescence (AID 449749); assay type: functional
T3 sequence (P9WMR3 whole entry): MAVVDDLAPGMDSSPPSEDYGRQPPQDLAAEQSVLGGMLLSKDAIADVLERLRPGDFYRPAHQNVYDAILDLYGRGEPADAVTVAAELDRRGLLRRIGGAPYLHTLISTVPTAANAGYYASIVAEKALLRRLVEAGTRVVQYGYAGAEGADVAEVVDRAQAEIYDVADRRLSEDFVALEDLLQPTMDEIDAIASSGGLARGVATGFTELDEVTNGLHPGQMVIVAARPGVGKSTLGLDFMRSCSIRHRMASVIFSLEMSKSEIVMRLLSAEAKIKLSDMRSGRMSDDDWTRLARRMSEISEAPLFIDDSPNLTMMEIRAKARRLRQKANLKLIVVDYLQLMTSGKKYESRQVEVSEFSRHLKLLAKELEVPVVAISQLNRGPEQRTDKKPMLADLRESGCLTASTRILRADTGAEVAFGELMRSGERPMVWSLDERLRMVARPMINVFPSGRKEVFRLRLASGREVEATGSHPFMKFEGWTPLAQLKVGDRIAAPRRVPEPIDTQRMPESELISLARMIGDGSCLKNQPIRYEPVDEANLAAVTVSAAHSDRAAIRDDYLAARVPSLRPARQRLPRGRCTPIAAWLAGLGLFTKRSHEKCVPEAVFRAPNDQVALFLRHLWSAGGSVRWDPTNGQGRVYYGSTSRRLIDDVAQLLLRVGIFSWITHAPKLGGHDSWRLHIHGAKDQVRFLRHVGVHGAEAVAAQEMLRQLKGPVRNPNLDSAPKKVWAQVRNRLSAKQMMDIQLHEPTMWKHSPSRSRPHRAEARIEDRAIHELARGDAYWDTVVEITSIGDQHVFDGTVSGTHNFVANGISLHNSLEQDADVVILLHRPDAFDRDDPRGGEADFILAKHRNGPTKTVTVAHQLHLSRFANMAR

[11] = molecular target: T4, Hepatocyte nuclear factor 4-alpha (Homo sapiens, UniProt P41235); assay type: functional, cell-based;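 further: biochemical luminescence-based dose-response counterscreen measuring inhibition of HNF4 dimerization, run alongside a screen for blockers of ABHD5–perilipin-5 interaction; split luciferase complementation of HNF4 fusion proteins in cell lysate measuring dimerization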
T4 sequence (P41235 whole entry): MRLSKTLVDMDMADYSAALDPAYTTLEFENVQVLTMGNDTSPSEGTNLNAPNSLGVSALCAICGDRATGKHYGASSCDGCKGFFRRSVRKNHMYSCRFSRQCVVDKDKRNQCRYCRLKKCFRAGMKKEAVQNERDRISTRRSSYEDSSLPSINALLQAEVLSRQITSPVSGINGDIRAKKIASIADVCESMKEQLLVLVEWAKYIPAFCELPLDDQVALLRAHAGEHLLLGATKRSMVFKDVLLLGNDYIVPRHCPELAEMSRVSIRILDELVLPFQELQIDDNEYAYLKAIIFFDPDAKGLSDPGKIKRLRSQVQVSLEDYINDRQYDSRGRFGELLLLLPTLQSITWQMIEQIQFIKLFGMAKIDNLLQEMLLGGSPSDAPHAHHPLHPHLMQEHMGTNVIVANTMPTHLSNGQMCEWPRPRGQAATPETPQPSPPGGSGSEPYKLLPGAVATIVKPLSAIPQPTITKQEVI

[12] = molecular target: T5, Short transient receptor potential channel 4 (Mus musculus, UniProt Q9QUQ5); assay: mouse TRPC4 channel activators, dose response, cell-based, HEK293 TRPC4/mu-opioid, Fluo-4 calcium (AID 434937); assay type: functional
T5 sequence (Q9QUQ5 whole entry): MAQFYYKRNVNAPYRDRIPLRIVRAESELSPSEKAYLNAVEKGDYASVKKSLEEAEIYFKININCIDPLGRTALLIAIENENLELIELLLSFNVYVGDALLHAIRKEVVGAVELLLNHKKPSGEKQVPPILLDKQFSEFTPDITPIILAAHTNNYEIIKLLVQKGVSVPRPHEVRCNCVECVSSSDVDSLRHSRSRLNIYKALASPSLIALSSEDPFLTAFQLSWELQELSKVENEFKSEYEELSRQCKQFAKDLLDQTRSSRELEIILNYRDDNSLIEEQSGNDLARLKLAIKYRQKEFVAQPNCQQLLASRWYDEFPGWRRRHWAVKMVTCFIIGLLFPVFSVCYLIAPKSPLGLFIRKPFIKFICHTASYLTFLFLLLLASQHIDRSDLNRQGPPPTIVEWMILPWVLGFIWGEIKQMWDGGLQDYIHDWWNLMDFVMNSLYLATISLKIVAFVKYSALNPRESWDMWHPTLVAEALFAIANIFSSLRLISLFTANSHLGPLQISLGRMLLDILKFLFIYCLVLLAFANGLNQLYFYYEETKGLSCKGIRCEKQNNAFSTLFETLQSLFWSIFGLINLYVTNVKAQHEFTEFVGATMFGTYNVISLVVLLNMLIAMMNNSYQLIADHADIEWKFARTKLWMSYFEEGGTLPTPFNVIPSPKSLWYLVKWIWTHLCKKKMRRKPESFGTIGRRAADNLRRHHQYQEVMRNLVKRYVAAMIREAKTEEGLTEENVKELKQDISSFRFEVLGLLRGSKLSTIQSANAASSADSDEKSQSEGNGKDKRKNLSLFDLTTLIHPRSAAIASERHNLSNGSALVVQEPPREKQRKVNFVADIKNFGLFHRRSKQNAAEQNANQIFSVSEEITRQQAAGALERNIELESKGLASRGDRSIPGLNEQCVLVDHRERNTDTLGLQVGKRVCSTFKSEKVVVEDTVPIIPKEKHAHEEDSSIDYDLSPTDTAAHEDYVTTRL

[13] = inhibitors of intracellular T. cruzi replication, confirmation, NIH3T3 host cells, beta-gal luminescence (AID 2044); assay type: functional, cell-based;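 further: intracellular parasites grown in NIH/3T3 mouse fibroblasts as host cells; luminescent beta-galactosidase reporter signal from transgenic T. cruzi replicating inside host cells; inhibitors lower the luminescence signal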
[14] = cytotoxicity toward NIH3T3 fibroblasts, dose response, counter-screen, cell-based, ATP luminescence, mouse fibroblasts (AID 2010); assay type: functional;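 further: cells exposed to compound for about 90 hours before reading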
[15] = HEp-2 cell cytotoxicity, dose response, cytotoxicity control for RSV inhibitor project, HTS (AID 2410); assay type: functional; conditions: human respiratory syncytial virus
[16] = cytotoxicity in HEK-293T cells, dose response, cytotoxicity control for TCR NF-kB inhibitor project, luminescence, T-cell screen hits (AID 489026); assay type: functional, cell-based;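 further: cells exposed to compound about 14 hours before the viability readout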
[17] = molecular target: T6, Low molecular weight phosphotyrosine protein phosphatase (Homo sapiens, UniProt P24666); assay type: functional; conditions: read-out: IC50_Mean;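 further: Dose-response confirmation assay measuring inhibition of LMPTP enzyme activity by fluorescence intensity read-out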
T6 sequence (P24666 whole entry): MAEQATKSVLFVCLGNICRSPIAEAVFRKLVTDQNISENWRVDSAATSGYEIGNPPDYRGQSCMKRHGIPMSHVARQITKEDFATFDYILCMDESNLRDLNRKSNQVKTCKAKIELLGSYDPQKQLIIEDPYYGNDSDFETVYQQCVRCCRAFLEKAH

[18] = molecular target: Melanocortin receptor 4 (Homo sapiens, UniProt P32245); assay type: functional, cell-based;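 further: Cell-based assay with luminescence read-out, confirmatory dose-response testing for agonist activity of biased ligands at MC4R; human U2OS cells with tagged receptor and beta-arrestin; potency of agonists that increase receptor coupling to beta-arrestin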
Sequence of Melanocortin receptor 4 (P32245 whole entry): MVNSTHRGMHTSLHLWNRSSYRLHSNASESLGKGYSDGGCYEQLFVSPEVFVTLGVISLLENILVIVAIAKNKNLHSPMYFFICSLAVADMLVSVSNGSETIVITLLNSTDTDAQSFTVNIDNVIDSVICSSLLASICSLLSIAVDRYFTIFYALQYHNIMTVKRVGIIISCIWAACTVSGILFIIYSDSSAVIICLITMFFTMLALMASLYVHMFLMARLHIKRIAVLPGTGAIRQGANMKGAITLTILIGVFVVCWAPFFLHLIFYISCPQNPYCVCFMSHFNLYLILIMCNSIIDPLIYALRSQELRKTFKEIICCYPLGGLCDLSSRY

[19] = test system: H9c2; assay: cells; assay type: functional, cell-based; conditions: Rattus norvegicus, H9c2, Myocardium;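 further: confirmatory concentration-response retest of ultra-high-throughput screening hits for modulation of myocardial damage; cell death induced by hydrogen peroxide oxidative stress; compound pretreatment for 60 min then peroxide exposure for 2 h; potency is for protecting the cells against peroxide damage rather than for killing them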
[20] = cells; assay type: functional
[21] = Vero E6 cell cytotoxicity, dose response, cytotoxicity control for non-replicating M. tuberculosis project, secondary assay (AID 492998); assay type: functional, VeroE6; conditions: Vero C1008

CC(=O)Nc1ccc(NC(=O)CCn2c(=S)oc3ccccc32)cc1
IC50 [1]: > 50 µM (inactive)

COc1ccc(/C=N/NC(=O)C(C)Sc2ccccn2)cc1[N+](=O)[O-] (stereo unspecified)
IC50 [2]: 6.02 µM (active)
IC50 [3]: 7.71 µM (active)

C=CCn1c2ccccc2c2nnc(SCc3[nH]c(=O)[nH]c3C(=O)CCCCC(=O)OCC)nc21
IC50 [4]: 2.19 µM (active)

Cc1ccc2nc(-c3cccc(SC4CCCCC4)c3)c(NCc3ccccc3)n2c1
AC50 [5]: 3.53 µM (active)
AC50 [6]: 5.3 µM (active)
AC50 [7]: > 70 µM (inactive)

Cc1cc(C)c(C(CC(=O)c2cccs2)C(C#N)C#N)c(C)c1 (stereo unspecified)
AC50 [8]: 5.08 µM (active)
EC50 [9]: 2.31 µM (active)
AC50 [10]: 3.42 µM (active)
IC50 [11]: 8.02 µM (active)

CCCCCNC(=O)C(c1ccccc1F)n1c(=O)c(-c2ccco2)nc2ccccc21 (stereo unspecified)
IC50 [11]: 0.97 µM (active)

CCCCN(CC)CCNC(=O)Cn1cc2c(n1)-c1c(oc(C(=O)N3CCCC3)c1C)CC2
EC50 [12]: 0.267 µM (active)

COCCN(C(=O)COC(=O)CNC(=O)c1cccs1)c1c(N)n(Cc2ccccc2)c(=O)[nH]c1=O
IC50 [2]: 8.35 µM (active)
IC50 [3]: 10.8 µM (active)

Brc1cccc(/C=N/Nc2nn[nH]n2)c1
IC50 [1]: > 50 µM (inactive)

COc1ccc(CCNCc2ccc(SC)cc2)cc1
EC50 [13]: 0.225 µM (active)
EC50 [12]: 5.31 µM (active)
EC50 [14]: > 60 µM (not active)

Cc1cccc(N(Cc2ccccc2)C(=O)Cc2ccc(S(=O)(=O)N3CCOCC3)s2)c1
CC50 [15]: 22 µM (active)
IC50 [4]: 18.6 µM (inactive)

CCOC(=O)c1[nH]c(C)c(C(=O)Nc2cc(Cl)ccc2C)c1C
IC50 [16]: > 80 µM (inactive)

CCn1cc(C(=O)O)c(=O)c2cc(F)c(N3CCN(C(=S)NC(=O)c4ccccc4Br)CC3)cc21
IC50 [17]: 4.66 µM (active)

O=C(NCc1ccccc1)C(c1ccc(C(F)(F)F)cc1)n1c(=O)c(-c2ccco2)nc2ccccc21 (stereo unspecified)
IC50 [11]: 2.02 µM (active)

CCN1CCN(S(=O)(=O)c2ccc(Cl)c(C(=O)Nc3cc(Cl)ccc3N3CCOCC3)c2)CC1
IC50 [2]: 5.15 µM (active)
IC50 [3]: 5.78 µM (active)

Cc1sc2ncnc(NCC(c3ccco3)N3CCCC3)c2c1C (stereo unspecified)
EC50 [12]: 0.0173 µM (active)

CC(=O)c1cccc(-c2cnc3c(NC=O)cc(-c4ccccc4F)cn23)c1
EC50 [18]: > 89.2 µM (inactive)
IC50 [19]: > 79 µM (inactive)

O=C(N/N=C/c1ccccn1)c1ccccc1
IC50 [20]: > 50 µM (active)
CC50 [21]: > 20 µM (active)

Reference: ChEMBL document CHEMBL1201862, “PubChem BioAssay data set” (2004)
